According to publication PMC10616469, “Pharmacokinetics and tissue distribution of four major bioactive components of Cynanchum auriculatum extract: a UPLC–MS/MS study in normal and functional dyspepsia rats” (Frontiers in Pharmacology, 2023):
Like-named read-outs stand apart in the source and are kept apart here.

Tests used:
[1] = Stability of the four compounds in tissue homogenate samples (QC samples); details: mean ± s, n = 5
Protocol: (§1) Additionally, stomach and small intestinal tissues were diluted three times to obtain a tissue homogenate. Then, 300 μL of this tissue homogenate was mixed with 30 μL 1% formic acid-water, 20 μL IS, and 1.2 mL acetonitrile. The mixture was then vortexed for 5 min, sonicated for 10 min, and then stored at −20°C for 30 min. Subsequently, the mixture was centrifuged at 14,000 rpm for 10 min. The supernatant obtained was then transferred to another tube and evaporated to dryness at 37°C under nitrogen. The dried residue was reconstituted with 200 μL of the 50% methanol–water, and the centrifugation process was repeated. The obtained supernatant was then used for further analysis.
The appropriate amount of the reference substance was accurately weighed and dissolved in an appropriate amount of methanol to obtain stock solutions. The concentrations of the resulting stock solution were 0.9996 mg/mL for baishouwu benzophenone, 0.9518 mg/mL for deacylmetaplexigenin, 1.3660 mg/mL for qingyangshengenin, and 0.9898 mg/mL for syringic acid. Accurate volumes of each stock solution were mixed to obtain working solution, which was then serially diluted with methanol to provide standard working solutions. Similarly, QC samples of three concentrations (low, medium, and high) were prepared. All solutions were stored at −20°C for later use.
The following parameters of stability were assessed: short–term stability (24 h at room temperature), processed sample stability (24 h at 4°C), freeze–thaw stability (3 cycles), and auto–sampler stability (6 h at room temperature). QC samples of different concentrations were used for stability analysis.

[2] = Tissue distribution study after oral administration of CA extract in normal and FD rats; details: distribution found in rat brain
Protocol: (§2) UPLC–MS/MS analysis was conducted using the ACQUITY UPLC system (Waters Corp., Milford, MA, United States) equipped with a Xevo–TQ mass spectrometer (Waters Corp., Milford, MA, United States) with an electrospray ionization (ESI) interface and triple quadrupole mass analyzer.
(§3) The ACQUITY UPLC® BEH C18 column (2.1 mm × 50 mm, 1.7 μm, Waters, United States) was used for separation and was maintained at 40°C. The mobile phase consisted of 0.1% formic acid in water (A) and 0.1% formic acid–acetonitrile (B) for PK study and 0.2% formic acid in water (A) and 0.2% formic acid–acetonitrile (B) for tissue distribution study. The mobile phase was eluted as a gradient, as follows: 0–0.5 min, 10% B; 0.5–3.0 min, 15% B; 3.0–3.2 min, 25% B; 3.2–4.0 min, 30% B; 4.0–4.5 min, 32% B; 4.5–6.0 min, 90% B; and 6.0 min, 10% B. The flow rate was set at 0.35 mL/min and the injection volume was 2 μL for the PK study and 1 μL for the tissue distribution study.
(§4) The four active components of CA were quantified using multiple reaction monitoring under negative ion mode. The following m/z transitions were chosen for quantification: baishouwu benzophenone 301.00→283.00, deacylmetaplexigenin 379.15→361.20, qingyangshengenin 499.20→137.00, syringic acid 197.20→181.95, and puerarin (internal standard, IS) 415.10→267.05. The collision energy was 15, 15, 35, 15, and 35 V, respectively ([Sun et al., 2022]). ESI mode was operated under the following conditions: capillary voltage, 1 kV; desolvation gas (N2), 1000 L/h; collision gas (Ar2), 150 L/h; desolvation temperature, 400°C; and source temperature, 120°C.
as §1
(§5) SD rats were randomly divided into normal and FD groups (n = 30 each) and orally administered 10 mL/kg of CA extract solution. The rats were sacrificed at 10, 30 min, 1, 2, and 4 h after administration (6 rats per time point). Subsequently, their heart, liver, spleen, lung, kidney, brain, small intestine, and stomach were removed. The tissue samples were then washed in saline solution and wiped with filter paper. Subsequently, all tissues were stored at −80°C until analysis.

[3] = rat, in vivo
Protocol: as §2, §3, §4, §1, §5

[4] = PK study: plasma pharmacokinetics after oral administration of CA extract in normal and FD rats (UPLC-MS/MS); assay type: in vivo; details: Sprague-Dawley, rat; for AUC(0-inf) / AUC(0-t) / CL/F / Cmax / half-life: n = 6; for Vd/F: n = 6, read-out: Vz/F
Protocol: For PK experiments, an appropriate amount of the CA extract was weighed to prepare a 0.10 g/mL solution using physiological saline. Briefly, 12 SD rats were randomly assigned to normal and FD groups and were orally administered the prepared CA sample (10 mL/kg body weight). For assessment, 0.3 mL of blood was collected into heparinized tubes via the caudal vein before dosing and at 2, 5, 10, 15, 20, 30, and 45 min, and 1, 2, 4, 8, 12, 24, and 48 h after administration. Blood samples were then immediately centrifuged at 4,500 rpm for 15 min, and the obtained plasma samples were stored at −20°C until determination.
The PK parameters were analyzed using the non–compartment analysis using the WinNonLin 8.2 software (Phoenix, United States). All the data were expressed as mean ± standard deviation (SD). The normal and FD groups were compared using independent samples t–test in SPSS 22.0. Results with p values < 0.05 were considered statistically significant.

[5] = Stability of the four compounds in plasma samples (QC samples); details: n = 5
Protocol: In a 1.5 mL EP tube, 100 μL of plasma sample was mixed with 10 µL 1% formic acid–water, 10 μL IS (0.2011 μg/mL), and 400 μL acetonitrile. The mixture was then vortexed for 5 min, followed by sonication for 10 min at 40 kHz and centrifugation at 14,000 rpm for 10 min. The supernatant obtained was transferred to another tube and evaporated to dryness under a nitrogen vacuum at 37°C. The residue obtained was reconstituted with 150 μL of the initial mobile phase, and the centrifugation process was repeated. The supernatant thus obtained was then used for further analysis.
Similarly, QC samples of three concentrations (low, medium, and high) were prepared.
The specificity of the method was evaluated by comparing the retention times of analytes and IS in the blank matrix, blank matrix spiked with the four analytes and IS, and the samples after oral administration of CA extract. Calibration curves were constructed by comparing the ratio of peak areas of the four analytes to that of IS versus the concentration of the four analytes. Calibration curves were fitted via linear weighted (1/X ^ 2 ) least–squares regression. The intra–and inter–day precision and accuracy were estimated by analyzing QC samples at different concentrations on the same day and three consecutive validation days, respectively. The extraction recovery was evaluated by determining the peak area of analytes in QC samples compared with that in extracted matrix samples. The relative standard deviation of the extraction recovery of analytes at each level was retained at ≤20.0%. The following parameters of stability were assessed: short–term stability (24 h at room temperature), processed sample stability (24 h at 4°C), freeze–thaw stability (3 cycles), and auto–sampler stability (6 h at room temperature). QC samples of different concentrations were used for stability analysis.

[6] = Brain homogenate, highest QC (ng·mL^-1): Baishouwu benzophenone 131.10, Syringic acid 320.04, Qingyangshengenin 62.12, Deacylmetaplexigenin 677.19
[7] = Brain homogenate, lowest QC (ng·mL^-1): Baishouwu benzophenone 3.34, Syringic acid 8.18, Qingyangshengenin 1.58, Deacylmetaplexigenin 17.26
[8] = Brain homogenate, middle QC (ng·mL^-1): Baishouwu benzophenone 20.88, Syringic acid 51.14, Qingyangshengenin 9.90, Deacylmetaplexigenin 107.87
[9] = Heart homogenate, highest QC (ng·mL^-1): Baishouwu benzophenone 111.56, Syringic acid 340.93, Qingyangshengenin 350.76, Deacylmetaplexigenin 1522.88
[10] = Heart homogenate, lowest QC (ng·mL^-1): Baishouwu benzophenone 2.66, Syringic acid 8.11, Qingyangshengenin 8.35, Deacylmetaplexigenin 36.24
[11] = Heart homogenate, middle QC (ng·mL^-1): Baishouwu benzophenone 18.96, Syringic acid 57.96, Qingyangshengenin 59.63, Deacylmetaplexigenin 258.89
[12] = Kidney homogenate, highest QC (ng·mL^-1): Baishouwu benzophenone 768.40, Syringic acid 1230.44, Qingyangshengenin 844.98, Deacylmetaplexigenin 2249.71
[13] = Kidney homogenate, lowest QC (ng·mL^-1): Baishouwu benzophenone 9.84, Syringic acid 15.75, Qingyangshengenin 10.82, Deacylmetaplexigenin 28.80
[14] = Kidney homogenate, middle QC (ng·mL^-1): Baishouwu benzophenone 81.96, Syringic acid 131.25, Qingyangshengenin 90.13, Deacylmetaplexigenin 239.97
[15] = Liver homogenate, highest QC (ng·mL^-1): Baishouwu benzophenone 313.75, Syringic acid 268.07, Qingyangshengenin 4484.13, Deacylmetaplexigenin 3093.35
[16] = Liver homogenate, lowest QC (ng·mL^-1): Baishouwu benzophenone 1.77, Syringic acid 22.34, Qingyangshengenin 25.26, Deacylmetaplexigenin 16.38
[17] = Liver homogenate, middle QC (ng·mL^-1): Baishouwu benzophenone 27.19, Syringic acid 89.35, Qingyangshengenin 386.62, Deacylmetaplexigenin 268.09
[18] = Lung homogenate, highest QC (ng·mL^-1): Baishouwu benzophenone 630.29, Syringic acid 662.80, Qingyangshengenin 385.86, Deacylmetaplexigenin 1513.71
[19] = Lung homogenate, lowest QC (ng·mL^-1): Baishouwu benzophenone 17.66, Syringic acid 18.57, Qingyangshengenin 10.81, Deacylmetaplexigenin 42.42
[20] = Lung homogenate, middle QC (ng·mL^-1): Baishouwu benzophenone 105.98, Syringic acid 111.44, Qingyangshengenin 64.88, Deacylmetaplexigenin 254.52
[21] = Small intestine homogenate, highest QC (ng·mL^-1): Baishouwu benzophenone 39.22, Syringic acid 773.28, Qingyangshengenin 1726.39, Deacylmetaplexigenin 1206.41
[22] = Small intestine homogenate, lowest QC (ng·mL^-1): Baishouwu benzophenone 0.46, Syringic acid 9.31, Qingyangshengenin 20.77, Deacylmetaplexigenin 14.52
[23] = Small intestine homogenate, middle QC (ng·mL^-1): Baishouwu benzophenone 4.97, Syringic acid 97.95, Qingyangshengenin 218.68, Deacylmetaplexigenin 152.81
[24] = Spleen homogenate, highest QC (ng·mL^-1): Baishouwu benzophenone 658.88, Syringic acid 752.66, Qingyangshengenin 418.52, Deacylmetaplexigenin 1979.74
[25] = Spleen homogenate, lowest QC (ng·mL^-1): Baishouwu benzophenone 10.98, Syringic acid 12.54, Qingyangshengenin 6.98, Deacylmetaplexigenin 33.00
[26] = Spleen homogenate, middle QC (ng·mL^-1): Baishouwu benzophenone 87.85, Syringic acid 100.35, Qingyangshengenin 55.80, Deacylmetaplexigenin 263.97
[27] = Stomach homogenate, highest QC (ng·mL^-1): Baishouwu benzophenone 47.06, Syringic acid 257.76, Qingyangshengenin 1285.45, Deacylmetaplexigenin 1665.65
[28] = Stomach homogenate, lowest QC (ng·mL^-1): Baishouwu benzophenone 0.63, Syringic acid 3.44, Qingyangshengenin 17.14, Deacylmetaplexigenin 22.21
[29] = Stomach homogenate, middle QC (ng·mL^-1): Baishouwu benzophenone 6.28, Syringic acid 34.37, Qingyangshengenin 171.39, Deacylmetaplexigenin 222.09
[30] = FD group rats, oral CA extract (0.10 g/mL solution, 10 mL/kg)
[31] = Normal group rats, oral CA extract (0.10 g/mL solution, 10 mL/kg)
[32] = high QC (nominal 1666.00 / 3172.53 / 569.17 / 206.21 ng·mL^-1)
[33] = low QC (nominal 52.06 / 49.57 / 8.89 / 1.61 ng·mL^-1)
[34] = medium QC (nominal 208.25 / 396.57 / 71.13 / 25.78 ng·mL^-1)

CC(=O)C1(O)CCC2(O)C3(O)CC=C4CC(O)CCC4(C)C3CC(O)C12C (stereo not shown) [Deacylmetaplexigenin]
Auto-sampler for 6 h Measured concentration [1, 6]: 639.39 ± 12.53 ng/mL
Three freeze-thaw cycles Measured concentration [1, 6]: 657.30 ± 18.60 ng/mL
Auto-sampler for 6 h Measured concentration [1, 7]: 16.37 ± 0.20 ng/mL
Three freeze-thaw cycles Measured concentration [1, 7]: 16.11 ± 0.43 ng/mL
Auto-sampler for 6 h Measured concentration [1, 8]: 106.81 ± 0.35 ng/mL
Three freeze-thaw cycles Measured concentration [1, 8]: 107.57 ± 1.64 ng/mL
Auto-sampler for 6 h Measured concentration [1, 9]: 1545.69 ± 28.28 ng/mL
Three freeze-thaw cycles Measured concentration [1, 9]: 1530.72 ± 31.74 ng/mL
Auto-sampler for 6 h Measured concentration [1, 10]: 29.91 ± 0.63 ng/mL
Three freeze-thaw cycles Measured concentration [1, 10]: 30.14 ± 0.33 ng/mL
Auto-sampler for 6 h Measured concentration [1, 11]: 253.92 ± 7.65 ng/mL
Three freeze-thaw cycles Measured concentration [1, 11]: 251.51 ± 4.47 ng/mL
Auto-sampler for 6 h Measured concentration [1, 12]: 2268.44 ± 53.12 ng/mL
Three freeze-thaw cycles Measured concentration [1, 12]: 2270.72 ± 48.43 ng/mL
Auto-sampler for 6 h Measured concentration [1, 13]: 30.96 ± 0.89 ng/mL
Three freeze-thaw cycles Measured concentration [1, 13]: 30.51 ± 1.21 ng/mL
Auto-sampler for 6 h Measured concentration [1, 14]: 267.87 ± 13.29 ng/mL
Three freeze-thaw cycles Measured concentration [1, 14]: 266.54 ± 9.78 ng/mL
Auto-sampler for 6 h Measured concentration [1, 15]: 3350.30 ± 128.16 ng/mL
Three freeze-thaw cycles Measured concentration [1, 15]: 3302.83 ± 129.48 ng/mL
Auto-sampler for 6 h Measured concentration [1, 16]: 15.66 ± 0.68 ng/mL
Three freeze-thaw cycles Measured concentration [1, 16]: 15.51 ± 0.68 ng/mL
Auto-sampler for 6 h Measured concentration [1, 17]: 249.04 ± 7.02 ng/mL
Three freeze-thaw cycles Measured concentration [1, 17]: 245.11 ± 4.40 ng/mL
Auto-sampler for 6 h Measured concentration [1, 18]: 1544.16 ± 36.02 ng/mL
Three freeze-thaw cycles Measured concentration [1, 18]: 1549.77 ± 41.79 ng/mL
Auto-sampler for 6 h Measured concentration [1, 19]: 38.33 ± 2.37 ng/mL
Three freeze-thaw cycles Measured concentration [1, 19]: 37.62 ± 2.38 ng/mL
Auto-sampler for 6 h Measured concentration [1, 20]: 243.55 ± 12.09 ng/mL
Three freeze-thaw cycles Measured concentration [1, 20]: 240.11 ± 10.98 ng/mL
Auto-sampler for 6 h Measured concentration [1, 21]: 1293.63 ± 65.40 ng/mL
Three freeze-thaw cycles Measured concentration [1, 21]: 1296.24 ± 110.99 ng/mL
Auto-sampler for 6 h Measured concentration [1, 22]: 12.77 ± 1.27 ng/mL
Three freeze-thaw cycles Measured concentration [1, 22]: 12.39 ± 1.33 ng/mL
Auto-sampler for 6 h Measured concentration [1, 23]: 150.09 ± 2.73 ng/mL
Three freeze-thaw cycles Measured concentration [1, 23]: 154.01 ± 1.23 ng/mL
Auto-sampler for 6 h Measured concentration [1, 24]: 1990.73 ± 48.18 ng/mL
Three freeze-thaw cycles Measured concentration [1, 24]: 1950.06 ± 62.22 ng/mL
Auto-sampler for 6 h Measured concentration [1, 25]: 31.95 ± 1.48 ng/mL
Three freeze-thaw cycles Measured concentration [1, 25]: 32.15 ± 1.58 ng/mL
Auto-sampler for 6 h Measured concentration [1, 26]: 232.19 ± 3.53 ng/mL
Three freeze-thaw cycles Measured concentration [1, 26]: 247.56 ± 6.23 ng/mL
Auto-sampler for 6 h Measured concentration [1, 27]: 1622.87 ± 76.11 ng/mL
Three freeze-thaw cycles Measured concentration [1, 27]: 1662.82 ± 50.13 ng/mL
Auto-sampler for 6 h Measured concentration [1, 28]: 21.14 ± 1.50 ng/mL
Three freeze-thaw cycles Measured concentration [1, 28]: 21.58 ± 1.95 ng/mL
Auto-sampler for 6 h Measured concentration [1, 29]: 244.68 ± 7.59 ng/mL
Three freeze-thaw cycles Measured concentration [1, 29]: 245.34 ± 9.19 ng/mL
crossing of the blood-brain barrier [2]: could cross the blood-brain barrier
time after oral administration at which almost completely metabolized in tissues ([3]; Sprague-Dawley): 4 h
time of peak in most of organ tissues ([3]; Sprague-Dawley, po): 0.17 to 0.5 h
tissue with the highest concentration ([3]; po): stomach and small intestine
Tmax ([4]; 1 g/kg, oral CA extract, normal and FD rats, read-out: time of peak concentration (Tmax)): 20 to 30 min
AUC(0-inf) [4, 30]: 13900 ng·h/mL
AUC(0-t) [4, 30]: 13300 ng·h/mL
CL/F [4, 30]: 16.5 mL/min/kg
Cmax [4, 30]: 4510 ± 241 ng/mL
half-life [4, 30]: 772 ± 454 min
Tmax ([4]; FD group rats, oral CA extract (0.10 g/mL solution, 10 mL/kg), n = 6, read-out: Tmax): 19.8 ± 4.8 min
Vd/F [4, 30]: 18.1 ± 10.6 L/kg
AUC(0-inf) [4, 31]: 12300 ng·h/mL
AUC(0-t) [4, 31]: 11600 ng·h/mL
CL/F [4, 31]: 19.2 mL/min/kg
Cmax [4, 31]: 4680 ± 499 ng/mL
half-life [4, 31]: 602 ± 190 min
Tmax ([4]; Normal group rats, oral CA extract (0.10 g/mL solution, 10 mL/kg), n = 6, read-out: Tmax): 25.2 ± 6.6 min
Vd/F [4, 31]: 16 ± 3.79 L/kg
Measured concentration, 4°C for 24 h [5, 32]: 3164.75 ± 84.97 ng/mL
Measured concentration, Three freeze-thaw cycles [5, 32]: 3053.63 ± 57.47 ng/mL
Measured concentration, 4°C for 24 h [5, 33]: 52.01 ± 2.68 ng/mL
Measured concentration, Three freeze-thaw cycles [5, 33]: 53.08 ± 3.47 ng/mL
Measured concentration, 4°C for 24 h [5, 34]: 406.61 ± 10.59 ng/mL
Measured concentration, Three freeze-thaw cycles [5, 34]: 352.32 ± 6.40 ng/mL
